Experimental data as given in EP2611847B1, “AMPHIPHILE FOR SOLUBILIZATION OF WATER-SOLUBLE ACTIVE INGREDIENTS” (BASF SE, priority 2010, dated 2012).
Converted amounts (≈) assume the structure as drawn. Where two headings read alike, the source gives them in different places.

Test: physchem
Format: physicochemical
Details: for solubility thermodynamic at 24 h: thermodynamic from solid
Method: In einem 50 mL Becherglas wurden 100 mg Polymer eingewogen und in 9,900 g dest. Wasser gelöst. Anschließend wurde dem Ansatz jeweils 100 mg Wirkstoff zugewogen, um eine übersättigte Lösung zu erhalten. Das Gemisch wurde nun 24 h bei Raumtemperatur mit Hilfe eines Magnetrührers gerührt. Nach einstündiger Ruhezeit wurde überschüssiger (d.h. nicht solubilisierter) Wirkstoff durch Zentrifugieren abgetrennt. Die so erhaltene, klare bzw. opake Lösung wurde anschließend auf ihren Wirkstoffgehalt mittels UV-Spektroskopie untersucht. Die Wellenlänge der UV-spektroskopischen Messung sind in Tabelle 1 zusammengestellt. Die Ergebnisse sind in Tabelle 2 zusammengestellt.

[1] = active alone in dist. water without polymer (not according to the invention), 24 h at room temperature

Row | Compound | Löslichkeit Ohne Polymer [1] | further results
1 | NC(=O)N1c2ccccc2C=Cc2ccccc21 [Carbamazepin] | 140 mg/L | 
2 | N#Cc1nn(-c2c(Cl)cc(C(F)(F)F)cc2Cl)c(N)c1[S+]([O-])C(F)(F)F (stereo not shown) [Fipronil] |  | solubility thermodynamic at 24 h (distilled water without polymer, active alone in dist. water without polymer (not according to the invention), 24 h at room temperature, read-out: Löslichkeit Ohne Polymer): 3 µg/mL (≈ 6.86 µM)
3 | CN1C(C(=O)Nc2ccccn2)=C(O)c2ccccc2S1(=O)=O [Piroxicam] |  | solubility thermodynamic at 24 h (water): 21 µg/mL (≈ 63.4 µM)
4 | COC(=O)N(OC)c1ccccc1COc1ccn(-c2ccc(Cl)cc2)n1 [Pyraclostrobin] | 22,5 mg/l | 
